What was measured:
α2A-adrenoceptor = target: T1, α2A-adrenoceptor (Homo sapiens, UniProt P08913); assay: α2A-adrenoceptor intrinsic activity, agonist mode (Tango bla reporter assay); assay type: cell-based; settings: read-out: α2A Ago Emax, receptor activation relative to the full agonist control
T1 sequence (P08913 1-465): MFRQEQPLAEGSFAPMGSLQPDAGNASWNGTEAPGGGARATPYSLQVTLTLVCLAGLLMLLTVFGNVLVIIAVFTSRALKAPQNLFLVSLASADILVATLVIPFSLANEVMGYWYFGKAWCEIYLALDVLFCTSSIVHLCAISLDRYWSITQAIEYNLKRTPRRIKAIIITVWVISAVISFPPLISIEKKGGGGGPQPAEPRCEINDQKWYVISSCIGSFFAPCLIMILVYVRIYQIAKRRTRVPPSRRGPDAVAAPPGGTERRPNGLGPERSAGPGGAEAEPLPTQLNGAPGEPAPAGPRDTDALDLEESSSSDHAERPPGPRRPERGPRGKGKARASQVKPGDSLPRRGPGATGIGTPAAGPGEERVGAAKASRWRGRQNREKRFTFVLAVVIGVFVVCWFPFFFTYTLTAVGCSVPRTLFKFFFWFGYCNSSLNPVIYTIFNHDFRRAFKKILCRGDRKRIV
Experimental: Intrinsic α2A-adrenoceptor activity was assessed using Tango assay technology, which utilizes a mammalian-optimized beta-lactamase (bla) reporter gene in conjunction with a FRET-enabled substrate to provide reliable and sensitive detection in cells. The intrinsic activity test was conducted based on the guidelines provided by the maker of the test kit (Invitrogen, Life Technologies, Carlsbad, CA, USA). […] To perform the agonist assay, 8 μL of a 5-fold higher concentration of agonist in assay medium was added to the cells. […] The agonist and antagonist plates were then incubated in a humidified incubator at 37 °C and 5% CO2 for 5 h. After incubation, cells were loaded with 8 μL of LiveBLAzer™-FRET B/G substrate mix (CCF4-AM), covered for light protection, and incubated at room temperature for 2 h.

α2-adrenoceptor = assay: Competitive radioligand binding, [3H]clonidine, rat cerebral cortex; settings: n.a. = no activity at 10–5 M
Experimental: The competitive radioligand-binding assay assessed affinity for α1- and α2-adrenoceptors. Experiments were carried out in the rat cerebral cortex. […] The membrane preparation and assay technique followed the previously reported protocol [10]. Radioactivity was measured using the MicroBeta2 scintillation counter (PerkinElmer, Kraków, Poland). The data was adjusted to match a single-site curve-fitting formula using Prism 8 (GraphPad Software, La Jolla, CA, USA), and the Ki values were estimated by means of the Cheng–Prusoff formula.

`[H]/N=C(\N)NN=Cc1c(Cl)cncc1Cl` [JP-14, (E)-2-((3,5-Dichloropyridin-4-yl)Methylene)Hydrazine-1-Carboximidamide] showed an Emax (α2A-adrenoceptor) of ~15% and a Ki (α2-adrenoceptor) of 0.126 ± 0.027 µM.

— article PMC12563652 (International Journal of Molecular Sciences, 2025)
